From patent US9079870B2, “Thiol mediated/activated prodrugs of sulfur dioxide (SO2) having anti-bacterial activity” (priority 2012, dated 2015)
Converted amounts (≈) assume the structure as drawn. “And” between values parts separate entries of the source, which are not always exact repeats. Identical values can stand only once. Like-named read-outs stand apart in the source and are kept apart here.

Experiments:
S. aureus ATCC 29213 = experiment: Antibacterial activity (MIC) against S. aureus; format: cell-based; conditions: Staphylococcus aureus, ATCC29213; read-out: MIC (μg/mL) S. aureus ATCC 29213
Excerpt: (§1) The antibacterial activity of thiol mediated/activated prodrugs of SO2 i.e. 2,4-dinitrophenylsulfonamide related compounds against the gram positive pathogenic bacteria selected from the group S. aureus, E. feacalis is given herein below Table 2a.

E. feacalis ATCC 29212 = experiment: Antibacterial activity (MIC) against E. feacalis; format: cell-based; conditions: Enterococcus faecalis, ATCC29212; read-out: MIC (μg/mL) E. feacalis ATCC 29212
Excerpt: as §1

[1] = tested on: Mycobacterium tuberculosis H37Rv strain; experiment: Antimycobacterial activity assay (MIC, 7H11 agar); format: cell-based; conditions: Mtb H37Rv
[2] = Pararosaniline-based colorimetric assay for sulfur dioxide; format: physicochemical; conditions: detected with pararosaniline-based colorimetric assay; 10 equiv cysteine, pH 7.4
[3] = 100 µM, pH 7.4
[4] = Table 4; values are for the amine without a DNs group; cited from earlier work
[5] = tested on: human embryonic kidney 293 cells (HEK); experiment: Cell viability assay
[6] = Cysteine-activated sulfur dioxide release, ion chromatography analysis of sulfite; conditions: for SO2 yield, 5 min: 5 min after treatment of compound (100 1M) with 10 equiv of cysteine in pH 7.4 phosphate buffer; for SO2 yield in 30 min (%): 30 min after commencement of the reaction with cysteine (10 equiv); for SO2 yield in 30 min (%) / Max SO2 yield: pH 7.4; for Max SO2 yield: sum of sulfite and sulfate, compound 100 μM, cysteine 10 equiv; for K (min−1), rate of sulfite release: compound (100 μM), cysteine (10 equiv), pH 7.4 phosphate buffer (20 mM)
[7] = Kinetics of thiol-mediated decomposition of compound (7), HPLC and ion chromatography; format: physicochemical; conditions: curve fitting, FIG. 3
Experimental: FIG. 3 depicts kinetics of decomposition of compound (7) to produce sulfur dioxide and 2-hydroxyethylthio-2,4-dinitrobenzene (7y), where disappearance of compound (7) and appearance of (7y) was followed by HPLC analysis. Production of sulfite was monitored by ion chromatography analysis. Curve fitting afforded first order rate constant for: appearance of (7y) as 0.011 min^−1; and appearance of sulfite as 0.014 min^−1.
Alternatively, a detailed kinetic analysis of thiol-mediated decomposition and sulfite generation from compound (7) is represented in FIG. 1b, wherein compound (7) decomposed to simultaneously produce sulfur dioxide, and by-products like 4-methoxyaniline (7x) and 2-hydroxyethylthio-2,4-dinitrobenzene (7y). Further the rate determining step in the said mechanism was the step of protonation (either through proton transfer or addition of proton).

[8] = Mycobacterium tuberculosis, H37RV, 672 h, Table 3, inhibit 99% of bacterial growth
[9] = Mycobacterium tuberculosis, H37RV, Table 2b
[10] = Mycobacterium tuberculosis, H37RV, Table 2b, inhibit 99% of bacterial growth
[11] = Mycobacterium tuberculosis, H37RV, Table 3
[12] = Mycobacterium tuberculosis, H37RV, Table 3, inhibit 99% of bacterial growth
[13] = 30 min after treatment of compound (100 1M) with 10 equiv of cysteine in pH 7.4 phosphate buffer
[14] = Table 3, 30 min after treatment of compound (100 μM) with 10 equiv of cysteine in pH 7.4 phosphate buffer

Q: For `O=[N+]([O-])c1ccc(S(=O)(=O)NCc2ccccc2)c([N+](=O)[O-])c1` [Compound 1, N-benzyl-2,4-dinitrophenylsulfonamide], which MIC (S. aureus ATCC 29213) is on record?
A: > 16 µg/mL

Q: What about the MIC (E. feacalis ATCC 29212) of the same molecule?
A: > 16 µg/mL

Q: And the MIC [1, 8]?
A: ≤ 25 µg/mL

Q: What about the MIC [1, 9] of the same molecule?
A: 0.15 µM

Q: What about the MIC [1, 10] of the same molecule?
A: ~0.05 µg/mL

Q: And the MIC [1, 11]?
A: 0.15 µM

Q: And the MIC [1, 12]?
A: 0.05 µg/mL

Q: And the SO2 source [2]?
A: yes

Q: And the “t1/2 (min) of SO2 generation” value [3]?
A: ~2 min

Q: And the “t1/2 (min) of SO2 generation” value ([3]; buffer)?
A: ~2 g·min

Q: What about the pKaH [4] of the same molecule?
A: 9.34

Q: What about the IC50 ([5]; Homo sapiens, HEK293, read-out: IC50, cell viability) of the same molecule?
A: 7 µM

Q: And the “selectivity (SI) toward Mtb over human embryonic kidney cells” value ([5]; based on the MIC and IC50)?
A: ~50 and 47

Q: And the “SO2 yield, 5 min” value [6]?
A: 83 µM

Q: What about the “SO2 yield in 30 min (%)” value [6] of the same molecule?
A: ~100%

Q: What about the “SO2 yield, 30 min” value [6, 13] of the same molecule?
A: 100 µM

Q: What about the “SO2 yield, 30 min” value [6, 14] of the same molecule?
A: 100 µM

Q: And the “Max SO2 yield” value [6]?
A: 100 µM

Q: With `O=[N+]([O-])c1ccc(S(=O)(=O)Nc2ccccc2)c([N+](=O)[O-])c1` [Compound 6, N-phenyl, 2,4-dinitrophenylsulfonamide] as the molecule, how does the MIC [1, 8] read?
A: ≤ 25 µg/mL

Q: What about the MIC [1, 9] of the same molecule?
A: 9.69 µM

Q: And the MIC [1, 10]?
A: 3.13 µg/mL

Q: What about the MIC [1, 11] of the same molecule?
A: 9.7 µM

Q: What about the MIC [1, 12] of the same molecule?
A: 3.13 µg/mL

Q: What about the SO2 source [2] of the same molecule?
A: yes

Q: What about the “t1/2 (min) of SO2 generation” value ([3]; buffer) of the same molecule?
A: 25 min

Q: What about the pKaH [4] of the same molecule?
A: 4.64

Q: What about the “SO2 yield, 5 min” value [6] of the same molecule?
A: 37 µM

Q: What about the “SO2 yield in 30 min (%)” value [6] of the same molecule?
A: 55%

Q: What about the “SO2 yield, 30 min” value [6, 13] of the same molecule?
A: 55 µM

Q: What about the “SO2 yield, 30 min” value [6, 14] of the same molecule?
A: 55 µM

Q: What about the “K (min−1), rate of sulfite release” value [6] of the same molecule?
A: 0.0273 min⁻¹

Q: And the “Max SO2 yield” value [6]?
A: 94 µM

Q: Which results are given for `COc1ccc(NS(=O)(=O)c2ccc([N+](=O)[O-])cc2[N+](=O)[O-])cc1` [Compound 7, N-(4-methoxyphenyl) 2,4-dinitrophenylsulfonamide]?
A: MIC (S. aureus ATCC 29213): > 16 µg/mL; MIC (E. feacalis ATCC 29212): > 16 µg/mL; MIC [1, 8]: ≤ 25 µg/mL; MIC [1, 9]: 4.4 µM; MIC [1, 10]: 1.56 µg/mL; MIC [1, 11]: 4.4 µM; MIC [1, 12]: 1.56 µg/mL; SO2 source [2]: yes; first order rate constant for appearance of (7y) ([7]; HPLC analysis): 0.011 min⁻¹; first order rate constant for appearance of sulfite ([7]; ion chromatography analysis): 0.014 min⁻¹; t1/2 (min) of SO2 generation ([3]; buffer): 12 min; pKaH [4]: 5.29; SO2 yield, 5 min [6]: 39 µM; SO2 yield, 30 min [6, 13]: 80 µM; SO2 yield, 30 min [6, 14]: 79.5 µM; K (min−1), rate of sulfite release [6]: 0.0575 min⁻¹; Max SO2 yield [6]: 97 µM

Q: Which MIC ([1]; Table 2b, read-out: MIC) does the source give for `O=[N+]([O-])c1ccc(S(=O)(=O)Nc2cccc(F)c2)c([N+](=O)[O-])c1` [Compound 9, N-(3-fluorophenyl) 2,4-dinitrophenylsulfonamide] here?
A: 73 µM

Q: And the MIC ([1]; Table 3, read-out: MIC)?
A: 73 µM

Q: What about the SO2 source [2] of the same molecule?
A: yes

Q: And the pKaH [4]?
A: 3.38

Q: What about the “SO2 yield, 5 min” value [6] of the same molecule?
A: 5 µM

Q: And the “SO2 yield, 30 min” value [6, 13]?
A: 24 µM

Q: What about the “SO2 yield, 30 min” value [6, 14] of the same molecule?
A: 24 µM

Q: What about the “K (min−1), rate of sulfite release” value [6] of the same molecule?
A: 0.0106 min⁻¹

Q: And the “Max SO2 yield” value [6]?
A: 86 µM

Q: With `CN(Cc1ccccc1)S(=O)(=O)c1ccc([N+](=O)[O-])cc1[N+](=O)[O-]` [Compound 15, (N-benzyl, N-methyl) 2,4-dinitrophenylsulfonamide] as the molecule, how does the MIC (S. aureus ATCC 29213) read?
A: 8 µg/mL (≈ 22.8 µM)

Q: What about the MIC (E. feacalis ATCC 29212) of the same molecule?
A: > 16 µg/mL

Q: What about the MIC [1, 8] of the same molecule?
A: ≤ 25 µg/mL

Q: And the MIC [1, 9]?
A: 1.1 µM

Q: And the MIC [1, 10]?
A: 0.4 µg/mL

Q: And the MIC [1, 11]?
A: 1.1 µM

Q: And the MIC [1, 12]?
A: 0.4 µg/mL

Q: What about the MIC ([1]; Mycobacterium tuberculosis, H37RV, text to Table 2b) of the same molecule?
A: < 1000 µg/mL

Q: What about the SO2 source [2] of the same molecule?
A: yes

Q: What about the “t1/2 (min) of SO2 generation” value [3] of the same molecule?
A: 4 min

Q: And the “t1/2 (min) of SO2 generation” value ([3]; buffer)?
A: ~4 g·min

Q: What about the pKaH [4] of the same molecule?
A: 9.58

Q: And the “SO2 yield, 5 min” value [6]?
A: 79 µM

Q: And the “SO2 yield, 30 min” value [6, 13]?
A: 100 µM

Q: And the “SO2 yield, 30 min” value [6, 14]?
A: 100 µM

Q: What about the “Max SO2 yield” value [6] of the same molecule?
A: 100 µM

Q: For `CCCN(Cc1ccccc1)S(=O)(=O)c1ccc([N+](=O)[O-])cc1[N+](=O)[O-]` [Compound 16, (N-benzyl, N-propyl) 2,4-dinitrophenylsulfonamide], which MIC ([1]; Table 2b, read-out: MIC) is on record?
A: 8.25 µM

Q: What about the MIC ([1]; Table 3, read-out: MIC) of the same molecule?
A: 8.25 µM

Q: And the SO2 source [2]?
A: yes

Q: What about the pKaH [4] of the same molecule?
A: 9.68

Q: What about the “SO2 yield, 5 min” value [6] of the same molecule?
A: 68 µM

Q: What about the “SO2 yield, 30 min” value [6, 13] of the same molecule?
A: 96 µM

Q: What about the “SO2 yield, 30 min” value [6, 14] of the same molecule?
A: 96 µM

Q: What about the “K (min−1), rate of sulfite release” value [6] of the same molecule?
A: 0.1517 min⁻¹

Q: What about the “Max SO2 yield” value [6] of the same molecule?
A: 96 µM
